Measurements published in patent US20240360146A1, “BRUTON'S TYROSINE KINASE AND MUTANT DEGRADER, COMPOSITION AND APPLICATION THEREOF” (HANGZHOU HEALZEN THERAPEUTICS CO., LTD., priority 2021, published 2024).

These compounds were tested against T1, BTK (Homo sapiens, UniProt Q06187) (assay: BTK degradation activity test in Mino cells). Conditions: 16 h incubation, Western blot or Elisa.
T1 construct: endogenous in cells; host or cells: Mino cells
Assay type: cell-based
Method in brief: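 Mino cells treated with a concentration series of compound for 16 h, then lysed; total protein by BCA. BTK quantified by Western blot or ELISA, degradation rate calculated against blank control, and DC50 fitted from the degradation curve.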

T1 sequence (Q06187 whole entry): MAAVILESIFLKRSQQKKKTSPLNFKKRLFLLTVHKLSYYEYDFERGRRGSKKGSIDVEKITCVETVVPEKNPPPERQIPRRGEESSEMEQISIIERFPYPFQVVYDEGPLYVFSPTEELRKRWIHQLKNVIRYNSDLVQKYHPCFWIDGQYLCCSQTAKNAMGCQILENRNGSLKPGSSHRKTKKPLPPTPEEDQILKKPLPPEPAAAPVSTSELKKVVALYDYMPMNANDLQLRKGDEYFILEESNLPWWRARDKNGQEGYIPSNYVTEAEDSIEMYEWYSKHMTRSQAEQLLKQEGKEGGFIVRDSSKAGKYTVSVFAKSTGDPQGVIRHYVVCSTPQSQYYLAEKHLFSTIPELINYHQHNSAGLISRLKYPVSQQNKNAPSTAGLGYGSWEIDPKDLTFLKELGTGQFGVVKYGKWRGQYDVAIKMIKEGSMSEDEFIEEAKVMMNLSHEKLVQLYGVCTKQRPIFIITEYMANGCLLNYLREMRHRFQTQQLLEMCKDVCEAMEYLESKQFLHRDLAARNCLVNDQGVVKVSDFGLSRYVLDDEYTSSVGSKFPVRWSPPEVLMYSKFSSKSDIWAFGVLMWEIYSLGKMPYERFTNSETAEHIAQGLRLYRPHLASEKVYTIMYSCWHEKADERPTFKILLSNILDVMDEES

Row | DC50 | SMILES
1 | < 1 nM | CC1(c2ccc(Nc3nc(N4CCCC(N5CCN(C6CCCC6)C5=O)C4)cnc3C(N)=O)cc2)CCN(C2CN(c3cccc4c3C(=O)N(C3CCC(=O)NC3=O)C4=O)C2)CC1 (centres unmarked) [Compound 020, 5-(3-(3-cyclopentyl-2-oxoimidazolin-1-yl)piperidin-1-yl)-3-((4-(1-(1-(2-(2,6-dioxopiperidin-3-yl)-1,3-dioxoisoindol-4-yl)azetidin-3-yl)-4-methylpiperidin-4-yl)phenyl)amino)pyrazin-2-carboxamide]
2 | < 1 nM | Cc1cc(N2CCC(CN3CCC(c4ccc(Nc5nc(N6CCC[C@@H](N7CCN(C)C7=O)C6)nnc5C(N)=O)cc4CO)CC3)CC2)ccc1N1CCC(=O)NC1=O [Compound 237, (R)-5-((4-(1-((1-(4-(2,4-dioxotetrahydropyrimidin-1(2H)-yl)-3-methylphenyl)piperidin-4-yl)methyl)piperidin-4-yl)-3-(hydroxymethyl)phenyl)amino)-3-(3-(3-methyl-2-oxoimidazolidin-1-yl)piperidin-1-yl)-1,2,4-triazin-6-carboxamide]
3 | < 1 nM | CN1CCN([C@@H]2CCCN(c3nnc(C(N)=O)c(Nc4ccc(N5CCN(CC#Cc6ccc(NC7CCC(=O)NC7=O)c7ocnc67)CC5)c(F)c4)n3)C2)C1=O (stereo partly drawn) [Compound 229, 5-((4-(4-(3-(7-((2,6-dioxopiperidin-3-yl)amino)benzo[d]oxazol-4-yl)propan-2-yn-1-yl)piperazin-1-yl)-3-fluorophenyl)amino)-3-((R)-3-(3-methyl-2-oxoimidazolidin-1-yl)piperidin-1-yl)-1,2,4-triazin-6-carboxamide]
4 | < 1 nM | CN1CCN([C@@H]2CCCN(c3nnc(C(N)=O)c(Nc4ccc(N5CCN(CC6CCN(c7ccc(NC8CCC(=O)NC8=O)c8c7OCO8)C6)CC5)c(F)c4)n3)C2)C1=O (stereo partly drawn) [Compound 208, 5-((4-(4-((1-(7-((2,6-dioxopiperidin-3-yl)amino)benzo[d][1,3]dioxacyclopent-4-yl)pyrrolidin-3-yl)methyl)piperazin-1-yl)-3-fluorophenyl)amino)-3-((R)-3-(3-methyl-2-oxoimidazolidin-1-yl)piperidin-1-yl)-1,2,4-triazin-6-carboxamide]
5 | < 1 nM | CN1C(=O)N(C2CCCN(c3cnc(C(N)=O)c(Nc4ccc(C5(C)CCN(C6CN(c7ccc8c(c7)C(=O)N(C7CCC(=O)NC7=O)C8=O)C6)CC5)cc4)n3)C2)C2CCCCC21 (centres unmarked) [Compound 009, 3-((4-(1-(1-(2-(2,6-dioxopiperidin-3-yl)-1,3-dioxoisoindol-5-yl)azetidin-3-yl)-4-methylpiperidin-4-yl)phenyl)amino)-5-(3-(3-methyl-2-oxooctahydro-1H-benzo[d]imidazol-1-yl)piperidin-1-yl)pyrazin-2-carboxamide]
6 | < 1 nM | NC(=O)c1nnc(N2CCCC(N3CCN(c4ccccc4)C3=O)C2)nc1Nc1ccc(C2CCN(CC3CCN(c4ccc5c(c4)C(=O)N(C4CCC(=O)NC4=O)C5)CC3)CC2)cc1 (centres unmarked) [Compound 099, 5-((4-(1-((1-(2-(2,6-dioxopiperidin-3-yl)-3-oxoisoindol-5-yl)piperidin-4-yl)methyl)piperidin-4-yl)phenyl)amino)-3-(3-(2-oxo-3-phenylimidazolin-1-yl)piperidin-1-yl)-1,2,4-triazin-6-carboxamide]
7 | < 1 nM | CN1CCN(C2CC3CC2N(c2nnc(C(N)=O)c(Nc4ccc(C5CCN(CC6CCN(c7ccc8c(c7)n(C)c(=O)n8C7CCC(=O)NC7=O)CC6)CC5)cc4)n2)C3)C1=O (centres unmarked) [Compound 114, 5-((4-(1-((1-(1-(2,6-dioxopiperidin-3-yl)-3-methyl-2-oxo-2,3-dihydro-1H-benzo[d]imidazol-5-yl)piperidin-4-yl)methyl)piperidin-4-yl)phenyl)amino)-3-(6-(3-methyl-2-oxoimidazolin-1-yl)-2-azabicyclo[2.2.1]heptan-2-yl)-1,2,4-triazin-6-carboxamide]
8 | < 1 nM | Cc1cc(N2CC(CC(=O)N3CCC(c4ccc(Nc5nc(N6CCC[C@@H](N7CCN(C)C7=O)C6)nnc5C(N)=O)c(CO)c4)CC3)C2)ccc1N1CCC(=O)NC1=O [Compound 239, (R)-5-((4-(1-(2-(1-(4-(2,4-dioxotetrahydropyrimidin-1(2H)-yl)-3-methylphenyl)azetidin-3-yl)acetyl)piperidin-4-yl)-2-(hydroxymethyl)phenyl)amino)-3-(3-(3-methyl-2-oxoimidazolidin-1-yl)piperidin-1-yl)-1,2,4-triazin-6-carboxamide]
9 | < 1 nM | CN1CCN(C2CC3CC2N(c2nnc(C(N)=O)c(Nc4ccc5c(c4)CCN(C4CN(c6ccc7c(c6)C(=O)N(C6CCC(=O)NC6=O)C7=O)C4)C5)n2)C3)C1=O (centres unmarked) [Compound 106, 5-((2-(1-(2-(2,6-dioxopiperidin-3-yl)-1,3-dioxoisoindol-5-yl)azetidine-3-yl)-1,2,3,4-tetrahydroisoquinolin-6-yl)amino)-3-(6-(3-methyl-2-oxoimidazolin-1-yl)-2-azabicyclo[2.2.1]heptan-2-yl)-1,2,4-triazin-6-carboxamide]
10 | < 1 nM | CN1CCN([C@@H]2CCCN(c3nnc(C(N)=O)c(Nc4ccc(N5CCN(CC6CCN(c7ccc(C(=O)NC8CCC(=O)NC8=O)cn7)CC6)CC5)c(F)c4)n3)C2)C1=O (stereo partly drawn) [Compound 175, 5-((4-(4-((1-(5-((2,6-dioxopiperidin-3-yl)carbamoyl)pyridin-2-yl)piperidin-4-yl)methyl)piperazin-1-yl)-3-fluorophenyl)amino)-3-((R)-3-(3-methyl-2-oxoimidazolidin-1-yl)piperidin-1-yl)-1,2,4-triazin-6-carboxamide]
11 | < 1 nM | NC(=O)c1nnc(N2CCCC(N3CCN(c4ccccc4)C3=O)C2)nc1Nc1ccc(C2CCN(CC3CCN(c4cc5c(cc4F)C(=O)N(C4CCC(=O)NC4=O)C5=O)CC3)CC2)cc1 (centres unmarked) [Compound 098, 5-((4-(1-((1-(2-(2,6-dioxopiperidin-3-yl)-6-fluoro-1,3-dioxoisoindol-5-yl)piperidin-4-yl)methyl)piperidin-4-yl)phenyl)amino)-3-(3-(2-oxo-3-phenylimidazolin-1-yl)piperidin-1-yl)-1,2,4-triazin-6-carboxamide]
12 | < 1 nM | NC(=O)c1nnc(N2CCCC(N3CCN(c4ccccc4)C3=O)C2)nc1Nc1ccc(N2CCN(CC3CCN(c4ccc5c(c4)C(=O)N(C4CCC(=O)NC4=O)C5=O)CC3)CC2)cc1 (centres unmarked) [Compound 095, 5-((4-(4-((1-(2-(2,6-dioxopiperidin-3-yl)-1,3-dioxoisoindol-5-yl)piperidin-4-yl)methyl)piperazin-1-yl)phenyl)amino)-3-(3-(2-oxo-3-phenylimidazolin-1-yl)piperidin-1-yl)-1,2,4-triazin-6-carboxamide]
13 | < 1 nM | CN1CCN(C2CC3CC2N(c2ccc(C(N)=O)c(Nc4ccc(C5CCN(C6CN(c7ccc8c(c7)C(=O)N(C7CCC(=O)NC7=O)C8=O)C6)CC5)cc4)n2)C3)C1=O (centres unmarked) [Compound 048, 2-((4-(1-(1-(2-(2,6-dioxopiperidin-3-yl)-1,3-dioxoisoindolin-5-yl)azetidin-3-yl)piperidin-4-yl)phenyl)amino)-6-(-6-(3-methyl-2-oxoimidazolin-1-yl)-2-azabicyclo[2.2.1]heptan-2-yl)nicotinamide]
14 | < 1 nM | Cc1cc(N2CCC(CN3CCN(c4ccc(Nc5nc(N6CCC[C@@H](N7CCN(C)C7=O)C6)nnc5C(N)=O)cc4F)CC3)C2)ccc1NC1CCC(=O)NC1=O (stereo partly drawn) [Compound 206, 5-((4-(4-((1-(4-((2,6-dioxopiperidin-3-yl)amino)-3-methylphenyl)pyrrolidin-3-yl)methyl)piperazin-1-yl)-3-fluorophenyl)amino)-3-((R)-3-(3-methyl-2-oxoimidazolidin-1-yl)piperidin-1-yl)-1,2,4-triazin-6-carboxamide]
